Data published in the NIST ThermoML archive (doi:10.1021/je900278v).

Tests used:
[1] = 101 kPa, Liquid; for viscosity: 293.15 K, Capillary tube (Ostwald / Ubbelohde) method; for mass density: 298.15 K
[2] = xn = mol fraction of the nth substance listed; conditions: 101 kPa, Liquid; for viscosity: 293.15 K, Capillary tube (Ostwald / Ubbelohde) method; for mass density: 298.15 K

ClC(Cl)=C(Cl)Cl [tetrachloroethene]
[1]
Conditions | mass density [kg/m3] | viscosity [mPa·s]
– | 1622.74 | 0.89

BrCCBr [1,2-dibromoethane] + CCCCCCO
[2]
Conditions | mass density [kg/m3] | viscosity [mPa·s]
x1 = 0.0402 | 856.608 | 4.925
x1 = 0.0682 | 883.413 | 4.703
x1 = 0.1276 | 941.916 | 4.275
x1 = 0.2056 | 1022.36 | 3.781
x1 = 0.2686 | 1090.47 | 3.412
x1 = 0.3892 | 1228.97 | 2.862
x1 = 0.4277 | 1276.43 | 2.711
x1 = 0.5444 | 1427.13 | 2.325
x1 = 0.6405 | 1562 | 2.07
x1 = 0.7326 | 1701.64 | 1.877
x1 = 0.8519 | 1899.69 | 1.726
x1 = 0.9273 | 2036.52 | 1.69
x1 = 0.9587 | 2096.51 | 1.692
x1 = 0.9782 | 2135.29 | 1.71
x1 = 1 | 2179.59 | 1.733

ClCCCl [1,2-dichloroethane] + CCCCCCO
[2]
Conditions | mass density [kg/m3] | viscosity [mPa·s]
x1 = 0.037 | 828.769 | 5.008
x1 = 0.0769 | 839.847 | 4.696
x1 = 0.1499 | 860.583 | 4.191
x1 = 0.2147 | 879.725 | 3.787
x1 = 0.2935 | 904.954 | 3.292
x1 = 0.3952 | 940.475 | 2.726
x1 = 0.4532 | 962.107 | 2.405
x1 = 0.5596 | 1005.05 | 1.894
x1 = 0.6113 | 1027.55 | 1.677
x1 = 0.6971 | 1067.98 | 1.372
x1 = 0.7791 | 1111.06 | 1.137
x1 = 0.8563 | 1155.16 | 0.977
x1 = 0.9335 | 1205.43 | 0.873
x1 = 0.979 | 1236.99 | 0.833
x1 = 1 | 1252.77 | 0.827

ClCCCl [1,2-dichloroethane]
[1]
Conditions | mass density [kg/m3] | viscosity [mPa·s]
– | 1252.77 | 0.827

BrCCBr [1,2-dibromoethane]
[1]
Conditions | mass density [kg/m3] | viscosity [mPa·s]
– | 2179.59 | 1.733

CCCCCCO [hexan-1-ol] + BrCCBr
[2], x2 = 0
Conditions | mass density [kg/m3] | viscosity [mPa·s]
– | 818.856 | 5.291

CCCCCCO [hexan-1-ol] + ClCCCl
[2], x2 = 0
Conditions | mass density [kg/m3] | viscosity [mPa·s]
– | 818.856 | 5.291

ClC(Cl)=C(Cl)Cl [tetrachloroethene] + CCCCCCO
[2]
Conditions | mass density [kg/m3] | viscosity [mPa·s]
x1 = 0.0688 | 864.637 | 4.756
x1 = 0.123 | 901.521 | 4.351
x1 = 0.2457 | 987.759 | 3.493
x1 = 0.3618 | 1072.99 | 2.772
x1 = 0.4502 | 1140.46 | 2.308
x1 = 0.5583 | 1226.3 | 1.853
x1 = 0.6518 | 1303.62 | 1.534
x1 = 0.7068 | 1350.53 | 1.382
x1 = 0.7419 | 1381.18 | 1.297
x1 = 0.7797 | 1414.65 | 1.213
x1 = 0.8315 | 1461.44 | 1.116
x1 = 0.8718 | 1498.8 | 1.051
x1 = 0.9179 | 1542.25 | 0.982
x1 = 0.9504 | 1573.61 | 0.942
x1 = 1 | 1622.74 | 0.89

CCCCCCO [hexan-1-ol]
[1]
Conditions | mass density [kg/m3] | viscosity [mPa·s]
– | 818.856 | 5.291

CCCCCCO [hexan-1-ol] + ClC(Cl)=C(Cl)Cl
[2], x2 = 0
Conditions | mass density [kg/m3] | viscosity [mPa·s]
– | 818.856 | 5.291
